These results are taken from PubChem BioAssay (NCI).

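A five-concentration, 48-hour dose response in 96-well plates underlies each endpoint, interpolated linearly between surrounding concentrations. Definition used: TGI = concentration required for complete inhibition of growth.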

Experiment in all cases: inhibition of tumour cell growth, NCI panel, 48 h
For assay [1], the system named is CAKI-1 renal.
Assay [2] has as its system HOP-62 NSCLC.
For assay [3], the system named is IGROV1 ovarian.
The test system of assay [4] is K-562 leukemia.
Assay [5] relates to MCF7 breast.
Assay [6] relates to MDA-MB-435.
Assay [7] deals with MOLT-4 leukemia.
The test system of assay [8] is NCI-H23 lung.
Assay [9] relates to NCI-H460 lung.
Assay [10] concerns NCI/ADR-RES ovarian.

As to `CCOC(=O)/C(C#N)=C/c1ccc2c(-c3c(OCC)ccc4cc(/C=C(\C#N)C(=O)OCC)ccc34)c(OCC)ccc2c1`, the TGI in [1], in assay [2], in [3], in [4], in assay [5] and in assay [6] was greater than 100 µM throughout. The TGI in assay [7], in assay [8], in assay [9] and in [10] was greater than 100 µM in each case.
Turning to `CCOC(=O)c1nc2cc(N3CCOCC3)c(F)cc2[nH]c1=O`, the TGI in assay [1], in [2], in [3], in assay [4], in [5] and in assay [6] was greater than 100 µM each time. Moreover, the TGI in [7], in assay [8], in [9] and in assay [10] was greater than 100 µM in each case.
On to `CNc1ncnc(Sc2nc(N)nc3nc[nH]c23)c1[N+](=O)[O-]`, for which the TGI was 12.9 µM in [1]; greater than 100 µM in assay [2]; 22.1 µM in assay [3]; 5.66 µM in assay [4]; greater than 41.5 µM in assay [5]; 12 µM in assay [6]. Further, the TGI was determined as 4.77 µM in assay [7], 13.9 µM in [8], 3.28 µM in assay [9] and 34.4 µM in [10].
As for `COc1ccc(/C=C2\C=Cc3ccccc32)cc1OC`, the TGI in assay [1], in assay [2], in [3], in assay [4], in [5] and in assay [6] was greater than 100 µM each time. Also, the TGI in assay [7], in assay [8], in [9] and in [10] was greater than 100 µM in each case.
On to `CC(=O)ON(OC(C)=O)c1ccc(C)cc1`, for which the TGI in [1], in assay [2], in [3], in [4], in [5] and in assay [6] was greater than 100 µM each time. The TGI in assay [7], in assay [8], in assay [9] and in assay [10] was greater than 100 µM each time.
Regarding `CCC1(C)C=Cc2c(cc(OC)c3c(=O)c4ccccc4n(C)c23)O1` (stereo not given), the TGI in [1] is 2.53 µM; in assay [2] it was greater than 10 µM; in [3], greater than 10 µM; in [4], greater than 10 µM; in [5], greater than 10 µM; in assay [6], greater than 10 µM. The TGI in assay [7], in assay [8], in [9] and in [10] was greater than 10 µM throughout.
Turning to `Cc1cc(-c2ccc(C(=O)O)[nH]2)on1`, the TGI in [1], in assay [2], in assay [3], in assay [4], in assay [5] and in [6] was greater than 100 µM each time. Moreover, the TGI in assay [7] was greater than 100 µM; in assay [8], greater than 100 µM; in assay [9], greater than 100 µM; in assay [10], 75.9 µM.
For `S=c1ssc2c3ssc(=S)c3n(Cc3ccccc3)c12`, the TGI in [1], in assay [2], in assay [3], in assay [4], in assay [5] and in [6] was greater than 100 µM throughout. The TGI was 38.9 µM in [7], greater than 100 µM in assay [8], greater than 100 µM in [9] and greater than 100 µM in assay [10].
For the molecule `O=C(Cn1c(=O)ccn(C2OC(CO)C(O)C2F)c1=O)c1ccc(F)cc1` (stereo not given), the TGI in assay [1], in assay [2], in [3], in assay [4], in assay [5] and in [6] was greater than 100 µM in each case. In addition, the TGI in assay [7], in assay [8], in assay [9] and in assay [10] was greater than 100 µM in each case.
On to `CCCCCCCCCOC(=O)c1cnc(Cl)cn1`, for which the TGI in assay [1] is 31.8 µM; in [2], 44.9 µM; in assay [3] it was 36 µM; in assay [4], greater than 100 µM; in [5], 57.7 µM; in assay [6], 40.8 µM. Besides, the TGI in assay [7] was greater than 100 µM; in assay [8], 33 µM; in assay [9], 41.5 µM; in assay [10], 48.2 µM.
With `COc1ccc2[nH]c(CCNC(=O)c3cc([N+](=O)[O-])cc([N+](=O)[O-])c3)cc2c1`, the TGI in [1] is greater than 100 µM; in assay [2], 60.6 µM; in assay [3] it was greater than 100 µM; in assay [4], greater than 100 µM; in assay [5] it was greater than 100 µM; in assay [6], greater than 100 µM. Further, the TGI in assay [7], in assay [8], in [9] and in [10] was greater than 100 µM throughout.
For `O=C(c1ccccc1)c1ccc(C(c2c(O)c3ccccc3oc2=O)c2c(O)c3ccccc3oc2=O)cc1`, the TGI in [1] was 25.3 µM; in assay [2], greater than 57.3 µM; in assay [3], greater than 60.9 µM; in assay [4], greater than 72.1 µM; in assay [5] it was greater than 100 µM; in [6], greater than 74.2 µM. Moreover, the TGI in [7] was 53.9 µM; in assay [8] it was 49 µM; in assay [9] it was greater than 100 µM; in assay [10], 62.5 µM.
For `CC/C(=N\NC(=O)c1cccnc1)c1ccc2c(c1)OCCO2`, the TGI in [1], in assay [2], in assay [3], in [4], in assay [5] and in assay [6] was greater than 100 µM in each case. Further, the TGI in [7], in assay [8], in assay [9] and in [10] was greater than 100 µM each time.
Turning to `Brc1cccc(/C=C/CN2CCN(CCOC(c3ccccc3)c3ccccc3)CC2)c1`, the TGI in assay [1] came to 30.2 µM; in [2], 30.1 µM; in assay [3] it was 29.8 µM; in assay [4], 28.6 µM; in assay [5], 29.5 µM; in [6], 25.2 µM. In addition, the TGI in assay [7] was 31.1 µM; in assay [8] it was 36.9 µM; in assay [9], 28.1 µM; in [10], 30.4 µM.
In the case of `CCOC(=O)c1cc2cc(N(C(C)=O)C(C)=O)ccc2s1`, the TGI is greater than 100 µM in assay [1]; greater than 100 µM in [2]; greater than 100 µM in assay [3]; 87 µM in assay [4]; greater than 100 µM in [5]; greater than 100 µM in assay [6]. Also, the TGI is 51 µM in assay [7], greater than 100 µM in [8], greater than 100 µM in [9] and greater than 100 µM in [10].
Take `COc1cc(NS(C)(=O)=O)ccc1NCc1cnc2ccc3[nH]c(C)ccc3c12`: the TGI in assay [1] was 68.8 µM; in assay [2] it was greater than 100 µM; in assay [3] it was greater than 100 µM; in assay [4], 62.2 µM; in assay [5], greater than 100 µM; in assay [6], 80.4 µM. The TGI in [7] was 44.7 µM; in assay [8], greater than 100 µM; in assay [9], greater than 100 µM; in assay [10], greater than 100 µM.
On to `O=c1[nH]c2ccc(C(F)(F)F)cc2nc1-c1ccccc1`, for which the TGI in assay [1], in assay [2], in assay [3], in assay [4], in [5] and in [6] was greater than 100 µM in each case. For the same molecule, the TGI in [7], in assay [8], in assay [9] and in assay [10] was greater than 100 µM throughout.
As to `CSC(SC)=C1CC(=O)Nc2ccccc2C1=O`, the TGI in assay [1] was 94.1 µM; in [2], greater than 100 µM; in assay [3], greater than 100 µM; in assay [4] it was 95.8 µM; in assay [5], greater than 100 µM; in [6] it was greater than 100 µM. The TGI in assay [7] was 96 µM; in [8] it was greater than 100 µM; in assay [9], greater than 100 µM; in [10] it was greater than 100 µM.
With `S=c1[nH]nc(COc2ccc3c(c2)CCCC3)n1/N=C/c1ccc(Cl)cc1`, the TGI was determined as 37.2 µM in assay [1]; 32.3 µM in [2]; 30.6 µM in assay [3]; 50.2 µM in assay [4]; 27.9 µM in [5]; 39.4 µM in [6]. For the same molecule, the TGI in assay [7] is 46.9 µM; in assay [8], 35.9 µM; in assay [9] it was 30.2 µM; in assay [10], 33.7 µM.
On to `COc1ccc(OC)c(C2CCc3nc4nc(N)nc(N)c4cc3C2)c1` (stereo not given), for which the TGI in [1] is greater than 56.2 µM; in [2], 5.04 µM; in [3], 26.7 µM; in assay [4], 6.35 µM; in [5], 3.68 µM; in assay [6], 4.09 µM. Moreover, the TGI is 5.3 µM in assay [7], 38.3 µM in assay [8], 19.2 µM in [9] and greater than 100 µM in [10].
For `CCN1CC2=C(N=c3s/c(=C\c4ccc(Cl)cc4)c(=O)n3C2c2ccc(Cl)cc2)/C(=C/c2ccc(Cl)cc2)C1` (stereo not given), the TGI in assay [1] is greater than 100 µM; in [2] it was 90.4 µM; in assay [3] it was greater than 100 µM; in assay [4], greater than 100 µM; in assay [5] it was greater than 100 µM; in [6], greater than 100 µM. For the same molecule, the TGI in assay [7], in assay [8], in [9] and in assay [10] was greater than 100 µM in each case.
As for `C[C@]12CC[C@@H]3c4ccc(O)cc4CC[C@H]3[C@@H]1C/C(=C\c1ccc([N+](=O)[O-])cc1)C2=O`, the TGI in assay [1], in assay [2], in assay [3], in assay [4], in assay [5] and in [6] was greater than 100 µM each time. Also, the TGI in assay [7], in assay [8], in [9] and in [10] was greater than 100 µM in each case.
Take `COc1c2c(c(OC)c3c1c(=O)c1ccccc1n3C)OCO2`: the TGI in assay [1] is greater than 100 µM; in [2], greater than 100 µM; in assay [3], greater than 100 µM; in assay [4], greater than 100 µM; in assay [5], greater than 100 µM; in assay [6], 6.46 µM. The TGI in assay [7] is greater than 31.6 µM; in assay [8], greater than 100 µM; in assay [9] it was 51.2 µM; in assay [10], greater than 100 µM.
Take `CCOc1c2ccsc2c(OCC)c2ccsc12`: the TGI in [1] is greater than 100 µM; in assay [2] it was greater than 100 µM; in assay [3], greater than 100 µM; in [4], greater than 100 µM; in assay [5], 31.7 µM; in [6], 3.15 µM. For the same molecule, the TGI in [7] is greater than 28.5 µM; in [8] it was greater than 78 µM; in [9] it was greater than 100 µM; in assay [10], greater than 100 µM.
For the molecule `c1ccc(N=C2c3ccccc3CN2c2ccccc2)cc1`, the TGI in assay [1], in assay [2], in assay [3], in [4], in assay [5] and in [6] was greater than 100 µM each time. In addition, the TGI in [7], in assay [8], in assay [9] and in [10] was greater than 100 µM in each case.
For the molecule `Clc1ccc(-c2nn3c(CCCCCCCCc4nnc5sc(-c6ccc(Cl)cc6)nn45)nnc3s2)cc1`, the TGI in assay [1] was 46.1 µM; in assay [2] it was greater than 83.2 µM; in assay [3] it was greater than 100 µM; in assay [4], greater than 100 µM; in assay [5] it was greater than 73.3 µM; in assay [6], greater than 88 µM. Besides, the TGI in assay [7] is 33.2 µM; in [8], greater than 92.6 µM; in [9], greater than 100 µM; in assay [10], greater than 87.2 µM.
As to `C/C(=N/NC(=S)Nc1ccccc1Cl)c1ccccn1`, the TGI was 19.7 µM in assay [1]; 12.4 µM in [2]; 13.9 µM in assay [3]; 3.25 µM in assay [4]; 0.27 µM in assay [5]; 17.1 µM in [6]. The TGI in assay [7] came to 3.62 µM; in assay [8], 32.8 µM; in assay [9], 9.85 µM; in [10] it was 6.53 µM.
